Measured values reported in US20210308138A1, “TISSUE TRANSGLUTAMINASE MODULATORS FOR MEDICINAL USE” (Aarhus Universitet, priority 2018, published 2021).

Experiments:
[1] = test system: small mesenteric arteries; settings: M. Engholm et al., British J. Pharm. (2016), 173, 839-855; cited from earlier work
[2] = test system: small mesenteric arteries; assay: Direct relaxation of U46619 pre-contracted small mesenteric arteries, concentration-response curves; parameters: species or system Male Wistar rats; settings: U46619 4·10^−7 mol/L; LDN-27219 10^−8-10^−5 mol/L; Z-DON 10^−8-3·10^−4 mol/L; endothelium intact
Protocol: (§1) The small mesenteric arteries were prepared in the same way is described in example 1.
The small mesenteric arteries were pre-contracted with the thromboxane analogue, U46619 (4·10^−7 mol/L) and concentration-response curves for TG2 specific inhibitors, LDN-27219 (10^−8-10^−5 mol/L) and Z-DON (10^−8-3·10^−4 mol/L) were constructed. To study the role of the endothelial pathways in LDN-27219 relaxation, concentration-response curves were constructed for it in arteries whose endothelium had been removed mechanically by rubbing the lumen repeatedly with a human scalp hair.

purified human TG2 = biological target: T1, purified human TG2 (Homo sapiens, UniProt P21980); assay: Conformational shift assay by native polyacrylamide gel electrophoresis (native-PAGE); assay type: biochemical; settings: TG2 2.5 uM; 1 mM LDN-27219, 1 mM GTPNa2, or 0.2 mM Z-DON with CaCl2
T1 construct: purchased Zedira (Darmstadt, Germany); host or cells: insect cells
T1 sequence (P21980 1-687): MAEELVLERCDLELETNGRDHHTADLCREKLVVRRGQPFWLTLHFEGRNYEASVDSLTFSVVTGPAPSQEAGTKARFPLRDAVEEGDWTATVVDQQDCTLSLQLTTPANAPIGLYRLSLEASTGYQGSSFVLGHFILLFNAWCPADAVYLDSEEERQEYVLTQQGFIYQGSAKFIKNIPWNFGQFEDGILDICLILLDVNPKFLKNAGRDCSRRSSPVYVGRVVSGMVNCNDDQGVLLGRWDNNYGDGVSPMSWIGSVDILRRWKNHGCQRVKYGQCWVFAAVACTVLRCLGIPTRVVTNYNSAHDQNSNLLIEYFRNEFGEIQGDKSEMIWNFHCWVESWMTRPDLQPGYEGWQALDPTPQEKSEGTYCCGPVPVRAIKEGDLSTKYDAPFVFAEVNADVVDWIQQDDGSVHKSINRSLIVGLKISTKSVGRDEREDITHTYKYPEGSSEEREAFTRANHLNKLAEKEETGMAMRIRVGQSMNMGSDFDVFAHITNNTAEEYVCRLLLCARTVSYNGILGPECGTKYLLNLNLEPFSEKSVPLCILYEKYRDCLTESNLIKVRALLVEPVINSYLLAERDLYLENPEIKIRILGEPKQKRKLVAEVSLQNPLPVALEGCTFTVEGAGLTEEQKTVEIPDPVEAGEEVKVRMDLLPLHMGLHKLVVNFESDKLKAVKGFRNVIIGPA
Protocol: For the conformational shift assay using native polyacrylamide gel electrophoresis (native-PAGE) purified and functional human TG2 protein produced in insect cells was obtained from Zedira (Darmstadt, Germany).
Native gel electrophoresis experiments were performed using a method similar to those previously described (Pinkas D M, et al., PLoS Biol, 2007, 5(12), 2788-2796.) (Iversen R, et al., Proc Natl. Acad. Sci., 2014, 111(43), 17146-17151). Briefly, TG2 (2.5 uM) was incubated for 30 min at room temperature in preincubation buffer (75 mM imidazole, 0.5 mM EDTA, 5 mM DTT [pH 7.2], 10% DMSO) with or without 1 mM GTPNa2 or 1 mM LDN-27219 before adding Native Sample Buffer for Protein Gels (Bio-Rad) or in preincubation buffer with 0.2 mM Z-DON 30 min prior addition of 5 mM of CaCl2 for 20 min. Native buffer was added (dilution 1:2), and 1.5 ug of protein was loaded onto a 4-20% Criterion™ TGX Stain-Free™ gel (Bio-Rad) using Tris-glycine as the running buffer. For 75 min, 125 V was applied at 4° C. The bands were visualized using stain-free technology by exposing the gels to UV light and capturing the image using a PXi 4 Touch image analysis system (Syngene). Band intensity analysis was carried out using GeneTools 4 software (Syngene).

[3] = test system: small mesenteric arteries; assay: Acetylcholine-induced endothelium-dependent relaxation of phenylephrine pre-contracted small mesenteric arteries, isometric myograph (ex vivo); parameters: species or system Male Wistar rats; settings: 1 hour incubation; Z-DON 4·10^−5, Boc-DON 10^−5, VA-5 10^−5 mol/L; 12-14 weeks old rats
Protocol: Small mesenteric arteries were mounted in microvascular myographs (Danish Myotechnology, Aarhus, Denmark) using two 40 μm wires and stretched to their optimal diameter for isometric tension recordings, which corresponded to 0.9 times the estimated internal diameter at 100 mmHg of transmural pressure. PSS solution in the myograph bath was heated to 37° C. and continuously bubbled with 5% CO2 in air to maintain pH (7.4). The vessel viability was tested at the beginning of each experiment by measuring the vasoconstrictor responses to a solution with a high K^+ concentration (KPSS), equivalent to PSS except that NaCl was exchanged for KCl on an equimolar basis, giving a final concentration of 123.7 mmol/L K^+ and the presence of endothelium was confirmed by addition of acetylcholine (ACh) (10^−5) after pre-constriction with noradrenaline (5·10^−6 mol/L), arteries with less than 75% of relaxation were discarded.
Mesenteric arteries from rats of different age were incubated with (10^−6 mol/L) LDN-27219 or vehicle for 25 minutes and pre-contracted with phenylephrine (Phe) (10^−5 mol/L). Then cumulative addition of acetylcholine (ACh) caused the relaxation of the mesenteric arteries and the concentration-response curves were constructed.
Rats of 5-7 weeks age, about 12 weeks age, and more than 30 weeks of age were tested respectively. The results of the isometric tension studies are shown in FIGS. 1, A), B) and C) respectively, each representing a different their age group.
as §1

Male Wistar rats = assay: Mean arterial pressure (MAP) in vivo measurement after intrajugular infusion; settings: VA-5 single dose 1 mg/kg, intrajugular infusion during 3 minutes; adult and older rats
Protocol: For ‘in vivo’ experiments Wistar rats of different age were fasted 8 h before anesthesia with 35 mg/kg of S-ketamine and 50 mg/kg of pentobarbital sodium administered intraperitoneally.
Male Wistar rats with 12-14 and 30-35 weeks of age were anesthetized with s-ketamine (35 mg/kg) and pentobarbital (50 mg/kg) and placed on a heated blanket to maintain body temperature at 37° C. ECG needles were installed for electrocardiographic measurements and a solid state catheter (Millar Inc, Houston, USA) was introduced into the carotid artery to measure MAP. MAP and electrocardiographic data was continuously recorded on a computerized data acquisition system (PowerLab, ADInstruments). Adequate depth of anesthesia was checked periodically by the absence of the toe pinch withdrawal effect and ⅓ of the initial dose of anesthetics was administered intraperitoneally when needed (usually each 1½ h). Changes in MAP and electrocardiographic signal in response to intrajugular infusion during 3 minutes of different doses of LDN-27219 and the corresponding vehicle (PEG-400) were studied.
The Area Under the Curve (AUC) was calculated using Graphpad Prism 5.1 (GraphPad Software, San Diego, Calif., USA) for each response to the change in MAP that was collected during the experiments in example 3. The AUC gives information about the maximal response, and about the duration of the effect.
Rats of different age in these experiments were anesthetized, prepared and catheterized as described in Example 3.

[4] = test system: vascular smooth muscle cells (VSMCs) potassium currents; assay: Whole-cell patch-clamp of K+ outward currents in isolated vascular smooth muscle cells; assay type: cell-based, rat; settings: LDN-27219 3·10^−5 mol/L 12 min; VA-5 5·10^−5 mol/L one hour incubation
Protocol: For isolation of VSMCs, rat mesenteric arteries were dissected as previously described, opened longitudinally and stored in ice-cold dissociation solution containing (mmol/L): 119 NaCl, 4.7 KCl, 1.18 KH2PO4, 1.17 MgSO4, 24.9 NaHCO3, 0.027 EDTA, and 11 glucose, pH=7.4. Arteries were then equilibrated during 10 min in a dissociation solution with bovine albumin serum (BSA; 1 mg/mL) at 37° C. and then exposed to the same solution supplemented with papain (0.5 mg/mL; Worthington Biochemical Corp., Lakewood, N.J., USA) and dithiothreitol (DTT; 1 mg/mL) at 37° C. for 8 min. Arteries were then washed in ice-cold dissociation solution and moved to dissociation solution containing BSA (1 mg/mL) and collagenase (0.7 mg/mL type F and 0.4 mg/mL type H; Worthington Biochemical Corp.) at 37° C. for 3 min. […]
Membrane currents were recorded under the whole-cell configuration of the patch-clamp technique using an Axon Multiclamp 700A amplifier (Axon instruments, Molecular Devices, CA, USA). […] Current-voltage relations were determined using 600 ms voltage ramps from −100 to 160 mV and a holding potential (Vh) of −65 mV for SMCs.
Amplitudes of K^+-outward currents were measured in control conditions and 12 min after the addition of LDN-27219 (3·10^−5 mol/L) to the extracellular solution by a perfusion system.

Compound	relative abundance of closed / open conformation of TG2 (purified human TG2)	ACh relaxation compared to the vehicle [3]	further results
NCCSSCCN [cystamine]			effects on endothelial pathways [1]: lacked effects on endothelial pathways
Z-DON-Val-Pro-Leu-OMe [reference compound]	force its open conformation	slight inhibition of ACh relaxation	relaxation of U46619 pre-contracted arteries [2]: failed to induce any vasodilation
Nc1nc2c(ncn2[C@@H]2O[C@H](COP(=O)([O-])OP(=O)([O-])OP(=O)([O-])[O-])[C@@H](O)[C@H]2O)c(=O)[nH]1.[Na+].[Na+].[Na+].[Na+] [GTP, guanosine 5′-triphosphate sodium salt]	completely force TG2 to its closed conformation		
Boc-DON-Gln-Ile-Val-OMe [reference compound]		no significant effect	
C=CC(=O)NCCCC[C@H](NC(=O)OCc1ccccc1)C(=O)N1CCN(C(=O)c2cc3ccc(O)cc3oc2=O)CC1 [VA-5, (S)-Benzyl (6-acrylamido-1-(4-(7-hydroxy-2-oxo-2H-chromene-3-carbonyl)piperazin-1-yl)-1-oxohexan-2-yl)carbamate, reference compound]		slight inhibition of ACh relaxation	mean blood pressure (MAP) (Male Wistar rats): did not produce any change in the mean blood pressure; potassium currents compared to control conditions [4]: significantly smaller potassium currents
